Measurements as given in patent US11247965B2 (VenatoRx Pharmaceuticals, Inc., priority 2017, dated 2022).
pEC50: −log10 of the molar value.

How the values were obtained:
[1] = system: HBV replication in HepAD38 cells; assay: Anti-HBV activity in HepAD38 cells, extracellular HBV DNA by QPCR; type: cell-based, HBV (genotype D, serotype ayw); conditions: Hepatitis B virus, HePAD38, 168 h, read-out: Anti-HBV EC50, HepAD38 cells, extracellular HBV DNA by QPCR, 7 days of incubation
In short: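 Seven-day compound exposure (30 μM down to 10 nM, half-log steps) after tetracycline withdrawal induced HBV replication in HepAD38 cells. Extracellular viral DNA measured by QPCR (copies/mL via standard curve), normalised to DMSO wells; EC50 from 4-parameter non-linear regression.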

[2] = In vitro cytotoxicity, MTT cell viability assay in HepG2 cells; type: cell-based; conditions: human, Cytotoxicity CC50
In short: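 CC50 values reflect loss of HepG2 viability after a 7-day exposure at 37 °C, 5% CO2. After 3-4 h with MTT, solubilized formazan was quantified at 492 nm relative to vehicle wells.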

SMILES | pEC50 [1] | CC50 at 7 days [2]
NC(=O)c1cc(NC(=O)c2ccc(Cl)c(C(F)(F)C(=O)N3CCC(O)CC3)c2)ccc1F [Example 60, N-(3-carbamoyl-4-fluorophenyl)-4-chloro-3-(1,1-difluoro-2-(4-hydroxypiperidin-1-yl)-2-oxoethyl)benzamide] | 4.52 to 5.30 | > 30 µM
COc1cc(NC(=O)c2ccc(Cl)c(C(F)(F)C(=O)N3CCC(O)CC3)c2)cc(F)c1F [Example 61, 4-chloro-3-(1,1-difluoro-2-(4-hydroxypiperidin-1-yl)-2-oxoethyl)-N-(3,4-difluoro-5-methoxyphenyl)benzamide] | 4.52 to 5.30 | > 30 µM
Cc1cc(NC(=O)c2ccc(Br)c(C(F)(F)C(=O)N3CCC(O)CC3)c2)ccc1F [Example 62, 4-bromo-3-(1,1-difluoro-2-(4-hydroxypiperidin-1-yl)-2-oxoethyl)-N-(4-fluoro-3-methylphenyl)benzamide] | > 5.30 | > 30 µM
Cc1cc(NC(=O)c2ccc(C(F)(F)C(=O)N3CCC(O)CC3)s2)ccc1F [Example 63, 5-(1,1-difluoro-2-(4-hydroxypiperidin-1-yl)-2-oxoethyl)-N-(4-fluoro-3-methylphenyl)thiophene-2-carboxamide] | < 4.52 | 5 to 30 µM
COc1ccc(CNC(=O)C(F)(F)c2cc(C(=O)Nc3ccc(F)c(F)c3)ccc2F)c(OC)c1 [Example 64, N-(3,4-difluorophenyl)-3-(2-((2,4-dimethoxybenzyl)amino)-1,1-difluoro-2-oxoethyl)-4-fluorobenzamide] | 4.52 to 5.30 | 5 to 30 µM
O=C(Nc1ccc(F)c(F)c1)c1ccc(F)c(C(F)(F)C(=O)NCc2ccc(O)cc2)c1 [Example 65, 3-(1,1-difluoro-2-((4-hydroxybenzyl)amino)-2-oxoethyl)-N-(3,4-difluorophenyl)-4-fluorobenzamide] | 4.52 to 5.30 | 5 to 30 µM
O=C(Nc1ccc(F)c(F)c1)c1ccc(F)c(C(F)(F)C(=O)NCc2cccnc2)c1 [Example 66, 3-(1,1-difluoro-2-oxo-2-((pyridin-3-ylmethyl)amino)ethyl)-N-(3,4-difluorophenyl)-4-fluorobenzamide] | 4.52 to 5.30 | > 30 µM
Cc1cc(NC(=O)c2cc(C(F)(F)C(=O)N3CCC(O)CC3)c(Cl)cc2C)ccc1F [Example 67, 4-chloro-5-(1,1-difluoro-2-(4-hydroxypiperidin-1-yl)-2-oxoethyl)-N-(4-fluoro-3-methylphenyl)-2-methylbenzamide] | > 5.30 | > 30 µM
Cc1cc(NC(=O)c2ccc(F)c(C(F)(F)C(=O)NCc3nccs3)c2)ccc1F [Example 68, 3-(1,1-difluoro-2-oxo-2-((thiazol-2-ylmethyl)amino)ethyl)-4-fluoro-N-(4-fluoro-3-methylphenyl)benzamide] | > 5.30 | 5 to 30 µM
Cc1cc(NC(=O)c2ccc(F)c(C(F)(F)C(=O)N3CCC(O)C(CO)C3)c2)ccc1F (stereo not drawn) [Example 69, 3-(1,1-difluoro-2-(4-hydroxy-3-(hydroxymethyl)piperidin-1-yl)-2-oxoethyl)-4-fluoro-N-(4-fluoro-3-methylphenyl)benzamide] | > 5.30 | > 30 µM
Cc1cc(NC(=O)c2ccc(F)c(C(F)(F)C(=O)N3CCC(C)(O)CC3)c2)ccc1F [Example 70, 3-(1,1-difluoro-2-(4-hydroxy-4-methylpiperidin-1-yl)-2-oxoethyl)-4-fluoro-N-(4-fluoro-3-methylphenyl)benzamide] | > 5.30 | 5 to 30 µM
Cc1cc(NC(=O)c2ccc(F)c(C(F)(F)C(=O)N3CCC(O)CC3(C)C)c2)ccc1F (stereo not drawn) [Example 71, 3-(1,1-difluoro-2-(4-hydroxy-2,2-dimethylpiperidin-1-yl)-2-oxoethyl)-4-fluoro-N-(4-fluoro-3-methylphenyl)benzamide] | 4.52 to 5.30 | > 30 µM
Cc1cc(NC(=O)c2ccc(F)c(C(F)(F)C(=O)N3CCC(O)C(C)(C)C3)c2)ccc1F (stereo not drawn) [Example 72] | > 5.30 | 5 to 30 µM
Cc1cc(NC(=O)c2ccc(F)c(C(F)(F)C(=O)N3CCC(F)(F)C3)c2)ccc1F [Example 73, 3-(2-(3,3-difluoropyrrolidin-1-yl)-1,1-difluoro-2-oxoethyl)-4-fluoro-N-(4-fluoro-3-methylphenyl)benzamide] | 4.52 to 5.30 | 5 to 30 µM
Cc1cc(NC(=O)c2ccc(Cl)c(C(F)(F)C(=O)N3CC=CCC3)c2)ccc1F [Example 74, 4-chloro-3-(2-(3,6-dihydropyridin-1(2H)-yl)-1,1-difluoro-2-oxoethyl)-N-(4-fluoro-3-methylphenyl)benzamide] | > 5.30 | 5 to 30 µM
Cc1cc(NC(=O)c2ccc(F)c(C(F)(F)C(=O)N3CCC(O)(CO)CC3)c2)ccc1F [Example 75, 3-(1,1-difluoro-2-(4-hydroxy-4-(hydroxymethyl)piperidin-1-yl)-2-oxoethyl)-4-fluoro-N-(4-fluoro-3-methylphenyl)benzamide] | > 5.30 | 5 to 30 µM
Cc1cc(NC(=O)c2ccc(F)c(C(F)(F)C(=O)N3CCc4cn[nH]c4C3)c2)ccc1F [Example 76, 3-(1,1-difluoro-2-oxo-2-(1,4,5,7-tetrahydro-6H-pyrazolo[3,4-c]pyridin-6-yl)ethyl)-4-fluoro-N-(4-fluoro-3-methylphenyl)benzamide] | > 5.30 | 5 to 30 µM
Cc1cc(NC(=O)c2ccc(F)c(C(F)(F)C(=O)N3CCC(O)C(F)(F)C3)c2)ccc1F (stereo not drawn) [Example 77, 3-(2-(3,3-difluoro-4-hydroxypiperidin-1-yl)-1,1-difluoro-2-oxoethyl)-4-fluoro-N-(4-fluoro-3-methylphenyl)benzamide] | > 5.30 | 5 to 30 µM
Cc1cc(NC(=O)c2ccc(F)c(C(F)(F)C(=O)N3C4CCC3CC(O)C4)c2)ccc1F [Example 78, 3-(1,1-difluoro-2-((1R,3r,5S)-3-hydroxy-8-azabicyclo[3.2.1]octan-8-yl)-2-oxoethyl)-4-fluoro-N-(4-fluoro-3-methylphenyl)benzamide] | > 5.30 | 5 to 30 µM
Cc1cc(NC(=O)c2ccc(F)c(C(F)(F)C(=O)N[C@H]3CC[C@H](O)CC3)c2)ccc1F [Example 79, 3-(1,1-difluoro-2-(((1r,4r)-4-hydroxycyclohexyl)amino)-2-oxoethyl)-4-fluoro-N-(4-fluoro-3-methylphenyl)benzamide] | 4.52 to 5.30 | > 30 µM
CC(C)n1cc(NC(=O)c2ccc(F)c(C(F)(F)C(=O)N3CCC(O)CC3)c2)cn1 [Example 80, 3-(1,1-difluoro-2-(4-hydroxypiperidin-1-yl)-2-oxoethyl)-4-fluoro-N-(1-isopropyl-1H-pyrazol-4-yl)benzamide] | < 4.52 | > 30 µM
Cc1cc(NC(=O)c2ccc(C(F)(F)C(=O)NC(C)(C)C)s2)ccc1F [Example 81, 5-(2-(tert-butylamino)-1,1-difluoro-2-oxoethyl)-N-(4-fluoro-3-methylphenyl)thiophene-2-carboxamide] | 4.52 to 5.30 | > 30 µM
Cc1cc(NC(=O)c2ccc(C(F)(F)C(=O)NC(C)(C)CO)s2)ccc1F [Example 82, 5-(1,1-difluoro-2-((1-hydroxy-2-methylpropan-2-yl)amino)-2-oxoethyl)-N-(4-fluoro-3-methylphenyl)thiophene-2-carboxamide] | < 4.52 | > 30 µM
Cc1cc(NC(=O)c2ccc(F)c(C(F)(F)C(=O)N[C@H]3CCCC[C@@H]3O)c2)ccc1F [Example 83, 3-(1,1-difluoro-2-(((1S,2S)-2-hydroxycyclohexyl)amino)-2-oxoethyl)-4-fluoro-N-(4-fluoro-3-methylphenyl)benzamide] | 4.52 to 5.30 | > 30 µM
Cc1cc(NC(=O)c2ccc(F)c(C(F)(F)C(=O)N[C@@H]3CCOC3=O)c2)ccc1F [Example 84, (R)-3-(1,1-difluoro-2-oxo-2-((2-oxotetrahydrofuran-3-yl)amino)ethyl)-4-fluoro-N-(4-fluoro-3-methylphenyl)benzamide] | < 4.52 | > 30 µM
O=C(Nc1ccc(F)c(Cl)c1)c1ccc(F)c(C(F)(F)C(=O)N2CCC(O)CC2)c1 [Example 85, N-(3-chloro-4-fluorophenyl)-3-(1,1-difluoro-2-(4-hydroxypiperidin-1-yl)-2-oxoethyl)-4-fluorobenzamide] | > 5.30 | 5 to 30 µM
O=C(Nc1cc(F)c(F)c(F)c1)c1ccc(F)c(C(F)(F)C(=O)N2CCC(O)CC2)c1 [Example 86, 3-(1,1-difluoro-2-(4-hydroxypiperidin-1-yl)-2-oxoethyl)-4-fluoro-N-(3,4,5-trifluorophenyl)benzamide] | > 5.30 | 5 to 30 µM
O=C(Nc1ccc(F)c(Br)c1)c1ccc(F)c(C(F)(F)C(=O)N2CCC(O)CC2)c1 [Example 87, N-(3-bromo-4-fluorophenyl)-3-(1,1-difluoro-2-(4-hydroxypiperidin-1-yl)-2-oxoethyl)-4-fluorobenzamide] | > 5.30 | 5 to 30 µM
N#Cc1cc(NC(=O)c2ccc(F)c(C(F)(F)C(=O)N3CCC(O)CC3)c2)ccc1F [Example 88, N-(3-cyano-4-fluorophenyl)-3-(1,1-difluoro-2-(4-hydroxypiperidin-1-yl)-2-oxoethyl)-4-fluorobenzamide] | > 5.30 | > 30 µM
Cn1cc(NC(=O)c2ccc(F)c(C(F)(F)C(=O)N3CCC(O)CC3)c2)cn1 [Example 89, 3-(1,1-difluoro-2-(4-hydroxypiperidin-1-yl)-2-oxoethyl)-4-fluoro-N-(1-methyl-1H-pyrazol-4-yl)benzamide] | < 4.52 | 5 to 30 µM
